The target in one test is S. aureus SPase (Staphylococcus aureus, UniProt P0A070). The test can be described thus: biochemical. To be noted: IC 50 (nM) S. aureus, 20 μM substrate, 10 minutes preincubation. On the procedure:
Full length His-tagged S. aureus SPase protein was expressed similarly from E. coli BL21(DE3) containing the plasmid pCDF1-SaSpsB and purified similarly to the E. coli protein with the following exceptions. SPase protein was solubilized using 300 mM NaCl, 20 mM Tris pH 8.06, 5 mM Imidazole, 10% glycerol, 1% Triton X-100, prior to purification in Ni-NTA Superflow resin and resin bound protein was washed in a similar buffer containing 1% Elugent in place of Triton X-100 prior to protein eluted in wash buffer supplemented with 300 mM imidazole. […] All protein concentrations were determined by BCA assay.
(§1) Signal peptidase enzyme activity of the above proteins was measured using two fluorogenic peptide substrates (decanoyl-LSSPAYNO2A ? ADKabzPD and decanoyl-LTPTAYNO2A ? ASKKabzDD), where abz is the fluorescence donor 2-aminobenzamide, YNO2 is the fluorescence acceptor 3-nitrotyrosine, and the cleavage site is indicated with an arrow. Enzyme mix solution was prepared by diluting 2.5 nM of Escherichia coli or Staphylococcus aureus SPase protein into reaction buffers consisting of 20 mM PO4 pH 7.4, 100 mM NaCl, and 1% Elugent™ or octyl phenoxypolyethoxylethanol detergent at a concentration of 0.25% or 0.0625%. Reactions were initiated by the addition of substrate to a final concentration of 20 μM. Reaction progress was monitored by measuring the increase in fluorescence signal (excitation at 314 nm, emission at 416 nm) using a SpectraMax M2 fluorescence microplate reader. To determine IC50 values of test compounds, compound stock solutions were prepared in DMSO at a concentration of 1 mM. Three-folder serial dilutions of test compounds, starting at 10 μM, were prepared in enzyme mix solution and incubated at room temperature for 10 minutes. Following this incubation, fluorogenic substrate was added to a final concentration of 20 μM and the increase in fluorescence, corresponding to substrate cleavage, was monitored continuously at room temperature for 1 hour. Initial reaction rates were calculated based on the rate of increase in fluorescence during the reaction. Reaction rates were plotted as a function of compound concentration, and IC50 values are determined nonlinear regression analysis (SoftMaxPro 5.4, Molecular Devices™) of the sigmoidal dose-response curve.

A further test deals with T1, E. coli SPase (Escherichia coli, UniProt P00803).
T1 construct: Full length His-tagged E. coli SPase proteins; His; made in house; host or cells: E. coli BL21(DE3)
Kind of test: Biochemical SPase activity assay, fluorogenic peptide substrate, E. coli enzyme. The note with it: 20 μM substrate, 10 minutes preincubation, read-out: IC 50 (nM) E. coli. On the procedure: Full length His-tagged E. coli SPase proteins were expressed in E. coli BL21(DE3) containing the plasmid pET23-lepB. Briefly, saturated overnight cultures grown in 20 ml of Luria-Bertani medium supplemented with ampicillin were subcultures into 1.5 L of Luria-Bertani, and shaken at 37° C. until an optical density at 600 nm of 0.4-0.5 was achieved.
as §1

Test [1] concerns methicillin resistant Staphylococcus aureus (MRSA) strain USA300 (NRS384). The note with it: MRSA USA300 (NRS384); 35° C., 22 hours. Put shortly: (§2)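 CLSI broth microdilution in cation-adjusted Mueller Hinton Broth with 0.002% Tween-80, two-fold dilutions starting at 64 μg/ml.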
The test system of test [2] is Escherichia coli strain MC4100 IMP-4213, which harbors an LptD mutation. The note with it: E. coli MC4100 IMP-4213; 35° C., 22 hours. Put shortly: as §2

≈ marks a conversion by molar mass, not a printed value. *1 amine or outer side, *2 acyl side, *3 side chain or, on linkers, in order; H or OH if unused. Where a SMILES comes first, the peptide text is derived from it. [ ]: non-standard residue; d: D form. The star is where a group is joined. boroAla((+)-pinanediol) = C[C@H](N*)B1O[C@@H]2C[C@@H]3C[C@@H](C3(C)C)[C@]2(C)O1; Biphenylcarbonyl(4'-Bu) = CCCCc1ccc(-c2ccc(C(=O)*)cc2)cc1; Benzoyl(4-(4-Cl-Ph)) = O=C(c1ccc(-c2ccc(Cl)cc2)cc1)*; X16 = O=S(=O)(c1ccc(-c2ccc(Cl)cc2)cc1)*; X14 = O=C(c1ccc(Oc2ccc(Cl)cc2)cc1)*; X12 = C[C@H](N*)C(=O)c1nc2ccccc2o1; X15 = Cc1nnc(C(=O)[C@H](C)N*)o1; X3 = CCCCc1ccc(C2CCN(*)CC2)cc1; aThr = C[C@H](O)[C@H](N)C(=O)O; X2 = C[C@H](N*)C(=O)c1ncco1; X9 = CC1(c2ccccc2)CCN(*)CC1; X4 = c1ccc(C2CCN(*)CC2)cc1; Dab = NCC[C@H](N)C(=O)O; Dap = NC[C@H](N)C(=O)O; CO = O=C([*:1])[*:2]; CF3 = FC(F)(F)*; CH2Cl = ClC* Where only a bound is given, the exact number is not on record here.

These results are taken from patent US20160194358A1, “LINEAR PEPTIDE ANTIBIOTCS” (priority 2013, published 2016).

Chain of S. aureus SPase (P0A070 whole entry): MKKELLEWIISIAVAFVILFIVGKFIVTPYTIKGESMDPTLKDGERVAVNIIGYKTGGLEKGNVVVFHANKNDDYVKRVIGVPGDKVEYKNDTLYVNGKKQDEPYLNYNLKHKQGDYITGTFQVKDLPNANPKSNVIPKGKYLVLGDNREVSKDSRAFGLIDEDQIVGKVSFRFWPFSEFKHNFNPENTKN
T1 sequence (P00803 whole entry): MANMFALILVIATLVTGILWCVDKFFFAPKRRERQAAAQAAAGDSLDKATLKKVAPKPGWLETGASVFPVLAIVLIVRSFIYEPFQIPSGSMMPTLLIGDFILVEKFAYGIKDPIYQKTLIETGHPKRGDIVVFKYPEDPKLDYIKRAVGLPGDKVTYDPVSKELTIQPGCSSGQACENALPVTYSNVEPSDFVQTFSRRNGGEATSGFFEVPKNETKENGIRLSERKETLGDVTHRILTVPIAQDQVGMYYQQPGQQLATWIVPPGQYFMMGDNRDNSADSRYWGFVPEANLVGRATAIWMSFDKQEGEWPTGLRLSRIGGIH

As for `CCCCc1ccc(-c2ccc(C(=O)N[C@@H](CCN)C(=O)N[C@H](C(=O)N[C@@H](C)C(=O)N[C@@H](CCCCN)C(=O)N[C@@H](C)B3O[C@@H]4C[C@@H]5C[C@@H](C5(C)C)[C@]4(C)O3)[C@H](C)O)cc2)cc1` [Compound 125] ({Biphenylcarbonyl(4'-Bu)}-[Dab][aThr]AK-{boroAla((+)-pinanediol)}), the results for the IC50 on S. aureus SPase and at E. coli SPase were 280 nM and 10 nM, respectively. Also, in test [1], the “MIC (μg/mL) S. aureus” value was found to be 0.4 µg/mL (≈ 0.465 µM). Further, in test [2], the “MIC (μg/mL) E. coli” value came out at 0.4 µg/mL (≈ 0.465 µM).
In the case of `C[C@H](NC(=O)[C@H](CCCCN)NC(=O)[C@H](C)NC(=O)[C@@H](NC(=O)[C@H](CCCCN)NC(=O)N1CCC(c2ccccc2)CC1)[C@@H](C)O)B1O[C@@H]2C[C@@H]3C[C@@H](C3(C)C)[C@]2(C)O1` [Compound 126] ({X4-CO}-KTAK-{boroAla((+)-pinanediol)}), the IC50 at S. aureus SPase was 250 nM; on E. coli SPase, 230 nM. Also, the “MIC (μg/mL) S. aureus” value in test [1] came to 64 µg/mL (≈ 76.3 µM). Besides, the “MIC (μg/mL) E. coli” value in test [2] was over 64 µg/mL.
Taken in the same sequence, the figures for `CCCCc1ccc(C2CCN(C(=O)N[C@@H](CCCCN)C(=O)N[C@H](C(=O)N[C@@H](C)C(=O)N[C@@H](CCCCN)C(=O)N[C@@H](C)B3O[C@@H]4C[C@@H]5C[C@@H](C5(C)C)[C@]4(C)O3)[C@@H](C)O)CC2)cc1` [Compound 127] ({X3-CO}-KTAK-{boroAla((+)-pinanediol)}) were 210 nM, 64 nM, 2 µg/mL (≈ 2.23 µM) and 32 µg/mL (≈ 35.8 µM).
As to `C[C@H](NC(=O)[C@H](CCCCN)NC(=O)[C@H](C)NC(=O)[C@@H](NC(=O)[C@H](CCCCN)NS(=O)(=O)c1ccc(-c2ccc(Cl)cc2)cc1)[C@@H](C)O)B1O[C@@H]2C[C@@H]3C[C@@H](C3(C)C)[C@]2(C)O1` [Compound 128] (X16-KTAK-{boroAla((+)-pinanediol)}), the IC50 turned out to be 75 nM against S. aureus SPase and 1200 nM on E. coli SPase. In addition, the “MIC (μg/mL) S. aureus” value in test [1] is 2 µg/mL (≈ 2.22 µM). Further, the “MIC (μg/mL) E. coli” value in test [2] was determined as 64 µg/mL (≈ 70.9 µM).
On to `C[C@H](NC(=O)[C@H](CCCCN)NC(=O)[C@H](C)NC(=O)[C@@H](NC(=O)[C@H](CN)NC(=O)c1ccc(Oc2ccc(Cl)cc2)cc1)[C@@H](C)O)B1O[C@@H]2C[C@@H]3C[C@@H](C3(C)C)[C@]2(C)O1` [Compound 129] (X14-[Dap]TAK-{boroAla((+)-pinanediol)}), for which the IC50 came to 120 nM against S. aureus SPase and 3.6 nM on E. coli SPase. For the same compound, the “MIC (μg/mL) S. aureus” value in test [1] was determined as 2.8 µg/mL (≈ 3.33 µM). In addition, the “MIC (μg/mL) E. coli” value in test [2] stood at 4 µg/mL (≈ 4.76 µM).
For the compound `C[C@H](NC(=O)[C@H](CCCCN)NC(=O)[C@H](C)NC(=O)[C@@H](NC(=O)[C@H](CCCCN)NC(=O)N1CCC(C)(c2ccccc2)CC1)[C@@H](C)O)B1O[C@@H]2C[C@@H]3C[C@@H](C3(C)C)[C@]2(C)O1` [Compound 130] ({X9-CO}-KTAK-{boroAla((+)-pinanediol)}), the IC50 against S. aureus SPase turned out to be 280 nM; on E. coli SPase it was 270 nM. The “MIC (μg/mL) S. aureus” value in test [1] came out at 64 µg/mL (≈ 75 µM). Also, the “MIC (μg/mL) E. coli” value in test [2] is over 64 µg/mL.
Consider `CCCCc1ccc(-c2ccc(C(=O)N[C@@H](CCN)C(=O)N[C@H](C(=O)N[C@@H](C)C(=O)N[C@@H](CCCCN)C(=O)N[C@@H](C)C(=O)C(F)(F)F)[C@@H](C)O)cc2)cc1` [Compound 210] ({Biphenylcarbonyl(4'-Bu)}-[Dab]TAKA-CF3), for which the IC50 at S. aureus SPase was found to be 2300 nM; at E. coli SPase, 260 nM. In test [1], the “MIC (μg/mL) S. aureus” value came out at 11 µg/mL (≈ 14.1 µM). Also, the “MIC (μg/mL) E. coli” value in test [2] stood at 4 µg/mL (≈ 5.14 µM).
Turning to `CCCCc1ccc(-c2ccc(C(=O)N[C@@H](CCN)C(=O)N[C@H](C(=O)N[C@@H](C)C(=O)N[C@@H](CCCCN)C(=O)N[C@@H](C)C(=O)CCl)[C@@H](C)O)cc2)cc1` [Compound 211] ({Biphenylcarbonyl(4'-Bu)}-[Dab]TAKA-CH2Cl), the results for the IC50 against S. aureus SPase and at E. coli SPase were 390 nM and 380 nM, respectively. For the same compound, in test [1], the “MIC (μg/mL) S. aureus” value turned out to be 4 µg/mL (≈ 5.27 µM). In addition, the “MIC (μg/mL) E. coli” value in test [2] came to 16 µg/mL (≈ 21.1 µM).
Taken in the same sequence, the figures for `C[C@H](NC(=O)[C@@H](NC(=O)[C@H](CN)NC(=O)c1ccc(-c2ccc(Cl)cc2)cc1)[C@@H](C)O)C(=O)N[C@@H](CCCCN)C(=O)N[C@@H](C)C(=O)c1ncco1` [Compound 212] ({Benzoyl(4-(4-Cl-Ph))}-[Dap]TAK-X2) were 2600 nM, 34 nM, 45 µg/mL (≈ 60.7 µM) and 64 µg/mL (≈ 86.3 µM).
Take `Cc1nnc(C(=O)[C@H](C)NC(=O)[C@H](CCCCN)NC(=O)[C@H](C)NC(=O)[C@H](CCCCN)NC(=O)[C@H](CN)NC(=O)c2ccc(-c3ccc(Cl)cc3)cc2)o1` [Compound 213] ({Benzoyl(4-(4-Cl-Ph))}-[Dap]KAK-X15): the IC50 against S. aureus SPase was over 10000 nM; at E. coli SPase it was 49 nM. In addition, the “MIC (μg/mL) S. aureus” value in test [1] is 32 µg/mL (≈ 40.9 µM). The “MIC (μg/mL) E. coli” value in test [2] was determined as 64 µg/mL (≈ 81.7 µM).
On to `C[C@H](NC(=O)[C@@H](NC(=O)[C@H](CN)NC(=O)c1ccc(-c2ccc(Cl)cc2)cc1)[C@@H](C)O)C(=O)N[C@@H](CCCCN)C(=O)N[C@@H](C)C(=O)c1nc2ccccc2o1` [Compound 214] ({Benzoyl(4-(4-Cl-Ph))}-[Dap]TAK-X12), for which the IC50 worked out at 630 nM against S. aureus SPase and 180 nM on E. coli SPase. In addition, the “MIC (μg/mL) S. aureus” value in test [1] came out at 64 µg/mL (≈ 80.9 µM). The “MIC (μg/mL) E. coli” value in test [2] is 32 µg/mL (≈ 40.4 µM).
